Test systems include A498 renal; A549 NSCLC; COLO 205 colon; HCT-116 colon; PC-3 prostate; T-47D breast.
Common to all, as to assay: NCI tumour cell line growth inhibition, 48 h

Several values for one entry are separate records, joined by “and”; a condition that tells them apart may be missing. Equal entries are not always repeated.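 Dose response: 5 concentrations. Exposure: 48 h. Format: 96-well plates. Endpoint: linear interpolation; highest concentration if not reached. Abbreviation: GI50, concentration required for 50% inhibition of growth. The concentration for full growth arrest is given as TGI.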

For `O=C(/C=C/c1cccc(Br)c1)c1cccs1`, the TGI in the assay on A498 renal is 33.2 µM; in the assay on A549 NSCLC, 36.2 µM; with COLO 205 colon, 46 µM; with HCT-116 colon, 18 µM; in the assay with PC-3 prostate it was 31.6 µM; in the assay with T-47D breast it was 34 µM.
As to `COC(=O)C(C)(N=Cc1ccccc1)c1ccccc1` (stereo unspecified), the TGI in the assay with A498 renal, in the assay with A549 NSCLC, in the assay on COLO 205 colon, in the assay on HCT-116 colon, with PC-3 prostate and in the assay with T-47D breast was > 100 µM each time.
`NC(=O)c1nnc2cc(F)ccc2c1N`: the TGI in the assay with A498 renal, with A549 NSCLC, in the assay on COLO 205 colon, in the assay with HCT-116 colon, in the assay on PC-3 prostate and with T-47D breast was > 100 µM throughout.
Regarding `CCCCCC(=O)N[C@@H](c1ccccc1)C(O)C(=O)OC1C[C@@]2(O)C(OC(=O)c3ccccc3)C3[C@](C)(C(=O)[C@H](O)C(=C1C)C2(C)C)C(OC1OCC(O)C(O)C1O)C[C@H]1OC[C@@]31OC(C)=O` (stereo partly specified), the TGI with A498 renal was > 100 µM; in the assay on A549 NSCLC, > 100 µM; with COLO 205 colon it was 8.15 µM; with HCT-116 colon, > 100 µM; in the assay with PC-3 prostate, > 86.4 µM; in the assay on T-47D breast it was > 100 µM.
On to `COc1ccc(N2C(=Nc3ccccc3)SC(=N/S(=O)(=O)c3ccccc3)/C2=N\S(=O)(=O)c2ccccc2)cc1`, for which the TGI stood at 52.4 µM with A498 renal; 46.5 µM in the assay on A549 NSCLC; 41 µM with COLO 205 colon; 28.2 µM in the assay with HCT-116 colon; 42.3 µM in the assay with PC-3 prostate; 20.1 µM in the assay on T-47D breast.
In the case of `CC(C)[C@@H]1CC[C@@H](C)C[C@H]1OC(=O)/C=C1/C2C=CC(O2)C1C(=O)O[C@@H]1C[C@H](C)CC[C@H]1C(C)C` (stereo partly specified), the TGI with A498 renal, in the assay with A549 NSCLC, in the assay with COLO 205 colon, in the assay on HCT-116 colon, in the assay on PC-3 prostate and in the assay on T-47D breast was > 100 µM throughout.
`C1CSCCCSCCSCCCSC1`: the TGI in the assay on A498 renal, in the assay on A549 NSCLC, in the assay with COLO 205 colon, with HCT-116 colon, in the assay with PC-3 prostate and with T-47D breast was > 100 µM each time.
As to `COc1cc(OC)c2c(O)c3c(cc2c1)CC(C)(C)CC3=O`, the TGI in the assay with A498 renal, in the assay on A549 NSCLC, with COLO 205 colon, with HCT-116 colon, in the assay with PC-3 prostate and in the assay on T-47D breast was > 100 µM in each case.
In the case of `O=c1c(SSc2coc3cc(F)ccc3c2=O)coc2cc(F)ccc12`, the TGI is > 100 µM in the assay with A549 NSCLC; 43.2 µM with COLO 205 colon; 19.3 µM with HCT-116 colon; 21.5 µM in the assay with PC-3 prostate; 46.6 µM in the assay on T-47D breast.
Regarding `COc1cc2c(c(OC)c1OC)-c1ccc(SC)c(=O)cc1[C@@H](OC(C)=O)CC2`, the TGI with A549 NSCLC, with COLO 205 colon, with HCT-116 colon, in the assay with PC-3 prostate and with T-47D breast was > 100 µM throughout.
`COC(=O)C(CCc1ccccc1I)C1=CCC2(CC1)OCCO2` (stereo unspecified): the TGI in the assay on A498 renal was > 100 µM; in the assay on A549 NSCLC, > 100 µM; with COLO 205 colon, > 100 µM; in the assay with PC-3 prostate, > 100 µM; with T-47D breast it was 71.3 µM.
With `CCCCCCCCCCCCCCCCCCNc1ccn(C2OC(COP(=O)(O)OCC3CCC(n4cnc5c(=O)[nH]cnc54)O3)C(O)C2O)c(=O)n1` (stereo unspecified), the TGI with A498 renal is > 100 µM; in the assay on A549 NSCLC, > 100 µM; with COLO 205 colon, > 100 µM; with HCT-116 colon it was > 100 µM; with PC-3 prostate, 47.6 µM; in the assay with T-47D breast, > 100 µM.
Take `O=C(/C=C/c1ccsc1)c1ccco1`: the TGI worked out at 17.8 µM in the assay on A498 renal; 11.7 µM in the assay on A549 NSCLC; 32.8 µM in the assay with COLO 205 colon; 16.6 µM with HCT-116 colon; 28.5 µM in the assay with PC-3 prostate; 27.2 µM in the assay on T-47D breast.
Consider `COC(=O)c1ccccc1C#CC#Cc1ccccc1C(=O)OC`, for which the TGI with A498 renal is > 10 µM; with A549 NSCLC, > 10 µM; in the assay on COLO 205 colon, 3.28 µM; in the assay on HCT-116 colon, > 10 µM; in the assay with PC-3 prostate, > 10 µM; in the assay with T-47D breast, > 10 µM.
For `CC(C)SC(C)(NC(=O)C1C(C)(C)CCC1(C)C)C(=O)O` (stereo unspecified), the TGI with A498 renal, with A549 NSCLC, in the assay on COLO 205 colon, with HCT-116 colon, in the assay with PC-3 prostate and in the assay with T-47D breast was > 100 µM in each case.
As for `O=C(Nc1nc2c(=O)[nH]cnc2s1)c1ccccc1`, the TGI in the assay with A498 renal, in the assay on A549 NSCLC, in the assay on COLO 205 colon, with HCT-116 colon and in the assay on PC-3 prostate was > 100 µM throughout.
In the case of `Cc1cc(-c2[nH]c(C(=O)O)cc2I)on1`, the TGI in the assay with A498 renal, in the assay on A549 NSCLC, with COLO 205 colon, in the assay with HCT-116 colon and in the assay with PC-3 prostate was > 100 µM in each case.
`CC(C)CCC[C@@H](C)[C@H]1CCC2C3CC=C4C[C@@H](Oc5c6ccccc6nc6ccccc56)CCC4C3CCC21` (stereo partly specified): the TGI with A549 NSCLC, in the assay on COLO 205 colon, in the assay on HCT-116 colon, in the assay with PC-3 prostate and with T-47D breast was > 50 µM throughout.
For `O=C(N=C1SCCN1C(=O)C(C(F)(F)F)C(F)(F)F)C(C(F)(F)F)C(F)(F)F`, the TGI in the assay on A498 renal, in the assay on A549 NSCLC, in the assay on COLO 205 colon, in the assay with HCT-116 colon and with PC-3 prostate was > 100 µM each time.
Turning to `CC12CCC(C(=O)O1)C(C)(C)O2` (stereo unspecified), the TGI in the assay with A498 renal, with A549 NSCLC, in the assay on HCT-116 colon and in the assay on PC-3 prostate was > 100 µM each time.
Take `Cc1ccnc2[nH]c(-c3cccc(Cl)c3)cc(=O)c12`: the TGI with A498 renal, in the assay on A549 NSCLC, with PC-3 prostate and in the assay on T-47D breast was > 100 µM in each case.
Consider `NNc1nc2ccccc2c(=O)n1NC(=O)C(=O)Nc1cccc(C(F)(F)F)c1`, for which the TGI in the assay on A498 renal, with A549 NSCLC, with HCT-116 colon, in the assay on PC-3 prostate and in the assay on T-47D breast was > 100 µM throughout.
On to `c1ccc(-c2sc(-c3cccs3)cc2Cc2cccs2)cc1`, for which the TGI with A549 NSCLC, in the assay with COLO 205 colon, in the assay on HCT-116 colon, with PC-3 prostate and in the assay on T-47D breast was > 10 µM throughout.
Take `O=C1CSc2nc3ccccc3n2/C=N\N1`: the TGI with A498 renal, in the assay with A549 NSCLC, in the assay with COLO 205 colon, in the assay on HCT-116 colon and with PC-3 prostate was > 100 µM throughout.
Regarding `COc1ccc(O[C@H](COCc2ccccc2)C[C@@H]2COC(C)(C)O2)cc1`, the TGI in the assay on A498 renal, with A549 NSCLC, in the assay on COLO 205 colon, with HCT-116 colon and in the assay with PC-3 prostate was > 100 µM throughout.
In the case of `CN1C(=S)C(c2ccccc2)Sc2ccccc21` (stereo unspecified), the TGI in the assay with A549 NSCLC, in the assay with COLO 205 colon, with HCT-116 colon, with PC-3 prostate and in the assay with T-47D breast was > 100 µM each time.
On to `Cn1c(C(C#N)c2nc(Cl)ncc2Br)nc2ccccc21` (stereo unspecified), for which the TGI with A498 renal, in the assay on A549 NSCLC, with COLO 205 colon, in the assay on HCT-116 colon and with T-47D breast was > 100 µM throughout.
`CCOC(=O)Oc1cc2c(c(OC)c1OC)-c1ccc(SC)c(=O)cc1C(NC(=O)C(F)(F)F)CC2` (stereo unspecified): the TGI was 0.554 µM with A498 renal; > 100 µM in the assay on A549 NSCLC; 0.523 µM and 1.03 µM in the assay on COLO 205 colon; > 100 µM in the assay on PC-3 prostate; 81 µM in the assay on T-47D breast. For the same molecule, the GI50 is 0.0447 µM with COLO 205 colon and 21.4 µM with T-47D breast.
With `CCC1C(c2cccc(OC)c2O)c2cc3c(cc2OC1N1CCCC1)OCO3` (stereo unspecified), the TGI with A549 NSCLC was found to be 54.7 µM; in the assay with HCT-116 colon it was 21.2 µM; in the assay on PC-3 prostate it was 89.2 µM; with T-47D breast it was 68.7 µM.
In the case of `Cc1ccsc1/C=N/Nc1cc(C)c2cccc(C)c2n1`, the TGI with A498 renal, in the assay on A549 NSCLC, in the assay with COLO 205 colon, in the assay with PC-3 prostate and in the assay on T-47D breast was > 100 µM in each case.
Regarding `O=c1/c(=C\c2ccccc2)sc2n1C(c1ccccc1)C1(O)CCCCC1N=2` (stereo unspecified), the TGI with A498 renal, in the assay on A549 NSCLC, in the assay with HCT-116 colon, in the assay on PC-3 prostate and in the assay with T-47D breast was > 100 µM in each case.
Consider `O=C(NCCC(F)(F)C(F)(F)C(F)(F)C(F)(F)F)NC1OC(CO)C(O)C(O)C1O` (stereo unspecified), for which the TGI in the assay with A549 NSCLC, in the assay with COLO 205 colon, with HCT-116 colon, in the assay with PC-3 prostate and in the assay on T-47D breast was > 100 µM in each case.

Source of the values: PubChem BioAssay (NCI).
